Series [1] can be described thus: Permeability of compound. Format: ADME. To be noted: not told; read-out: permeability.
For series [2], the target named is T1, Aquaporin-9 (Homo sapiens) (UniProt O43315).
T1 sequence (whole entry): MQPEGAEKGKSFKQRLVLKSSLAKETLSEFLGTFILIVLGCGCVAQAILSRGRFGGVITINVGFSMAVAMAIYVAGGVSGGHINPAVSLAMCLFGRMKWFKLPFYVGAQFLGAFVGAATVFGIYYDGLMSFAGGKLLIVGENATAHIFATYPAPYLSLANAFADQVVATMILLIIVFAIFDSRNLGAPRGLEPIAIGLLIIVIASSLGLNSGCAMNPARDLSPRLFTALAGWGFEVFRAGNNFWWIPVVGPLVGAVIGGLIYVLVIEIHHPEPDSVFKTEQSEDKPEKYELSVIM
Description: Inhibition of AQP9 (unknown origin) expressed in xenopus laevis oocytes at 100 uM relative to control. As to conditions: Oocyte. The class given is cell-based.

Series [3] has as its target T2, Aquaporin-3 (Homo sapiens, UniProt Q92482).
T2 sequence (Q92482 whole entry): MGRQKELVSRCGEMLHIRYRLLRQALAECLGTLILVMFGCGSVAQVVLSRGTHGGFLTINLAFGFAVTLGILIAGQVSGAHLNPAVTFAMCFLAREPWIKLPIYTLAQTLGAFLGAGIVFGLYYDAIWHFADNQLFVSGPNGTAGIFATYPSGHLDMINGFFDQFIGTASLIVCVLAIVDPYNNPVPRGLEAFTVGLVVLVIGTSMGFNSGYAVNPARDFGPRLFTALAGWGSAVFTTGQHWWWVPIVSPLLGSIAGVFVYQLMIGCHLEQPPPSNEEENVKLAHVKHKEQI
Description: Inhibition of human AQP3 expressed in CHO cells. Format: cell-based.

Series [4] concerns the target T2, Aquaporin-3. Description: Inhibition of AQP3 channel in human erythrocyte assessed as inhibition of glycerol permeability. Format: cell-based.
The target in series [5] is T3, Aquaporin-1 (Homo sapiens) (UniProt P29972).
T3 sequence (whole entry): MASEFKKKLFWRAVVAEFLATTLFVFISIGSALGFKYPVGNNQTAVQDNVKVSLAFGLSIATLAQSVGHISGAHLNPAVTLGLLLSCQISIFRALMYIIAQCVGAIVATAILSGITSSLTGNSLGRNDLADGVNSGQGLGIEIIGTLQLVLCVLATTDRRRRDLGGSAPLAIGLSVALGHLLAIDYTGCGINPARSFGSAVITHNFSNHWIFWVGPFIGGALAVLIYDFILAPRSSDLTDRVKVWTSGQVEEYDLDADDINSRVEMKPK
Description: Inhibition of AQP1 (unknown origin) at 20 uM relative to control.

Series [6] deals with T4, Aquaporin-4 (Homo sapiens, UniProt P55087). Put plainly: Inhibition of AQP4-M23 (unknown origin).
Series [7] deals with T4, Aquaporin-4. Description: Inhibition of AQP4-M23 (unknown origin) relative to control. To be noted: concentration not given here.
The target in series [8] is T2, Aquaporin-3. Description: Inhibition of AQP3 (unknown origin).
The next series concerns the target T5, Aquaporin-9 (Mus musculus, UniProt Q9JJJ3).
T5 sequence (Q9JJJ3 whole entry): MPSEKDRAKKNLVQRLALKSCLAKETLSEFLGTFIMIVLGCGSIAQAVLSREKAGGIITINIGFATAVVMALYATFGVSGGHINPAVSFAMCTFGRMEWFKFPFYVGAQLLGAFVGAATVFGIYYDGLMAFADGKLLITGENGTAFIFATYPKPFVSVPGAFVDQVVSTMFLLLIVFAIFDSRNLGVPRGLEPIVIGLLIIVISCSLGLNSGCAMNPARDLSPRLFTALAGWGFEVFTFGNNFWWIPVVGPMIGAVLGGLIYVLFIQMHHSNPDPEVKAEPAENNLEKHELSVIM
Description: Inhibition of mouse AQP9.

The target of series [9] is T6, Aquaporin-3 (Mus musculus, UniProt Q8R2N1).
T6 sequence (Q8R2N1 whole entry): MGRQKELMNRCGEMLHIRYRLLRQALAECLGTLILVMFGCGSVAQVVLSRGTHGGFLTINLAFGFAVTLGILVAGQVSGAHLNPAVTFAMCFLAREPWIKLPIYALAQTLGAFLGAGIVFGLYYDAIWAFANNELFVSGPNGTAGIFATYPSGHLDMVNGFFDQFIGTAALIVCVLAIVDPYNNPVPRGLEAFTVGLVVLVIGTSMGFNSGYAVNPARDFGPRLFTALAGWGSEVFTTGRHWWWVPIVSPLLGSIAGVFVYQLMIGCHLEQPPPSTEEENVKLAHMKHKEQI
Description: Inhibition of mouse AQP3.

The target of a further series is T7, Aquaporin-1 (Homo sapiens, UniProt P29972).
T7 sequence (P29972 whole entry): T3 sequence (whole entry)
Description: Binding affinity to AQP1 (unknown origin) expressed in HEK cells assessed as dissociation constant. Format: cell-based.

What is called inhibition is the drop in the measured response relative to a control, in per cent. Low values mean little suppression, high ones strong suppression. Usually IC50 stands for the concentration at which inhibition is half-maximal. Usually Kd stands for the free concentration of one partner at which half of the binding sites on the other are occupied at equilibrium, for simple one-to-one binding.

SMILES strings stand for the structures.

T4 sequence (P55087 whole entry): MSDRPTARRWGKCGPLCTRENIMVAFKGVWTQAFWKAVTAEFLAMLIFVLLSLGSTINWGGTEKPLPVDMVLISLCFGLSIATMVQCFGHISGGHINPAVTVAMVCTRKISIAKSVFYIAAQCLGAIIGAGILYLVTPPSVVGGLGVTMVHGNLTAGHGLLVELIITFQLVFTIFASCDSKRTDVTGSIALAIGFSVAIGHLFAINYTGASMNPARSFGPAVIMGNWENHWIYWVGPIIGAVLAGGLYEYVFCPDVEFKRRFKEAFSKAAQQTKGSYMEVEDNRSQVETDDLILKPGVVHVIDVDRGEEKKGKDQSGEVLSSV

With `O=C(CCc1ccc(O)cc1)c1c(O)cc(O)cc1O` [PHLORETIN], the Papp in [1] is around 28 nm/s. This compound also gave an inhibition in series [2] of 86%.

For `O=C(Nc1csc([N+](=O)[O-])c1)Nc1c(Cl)cccc1Cl`, the IC50 against Aquaporin-3 [3] is around 0.1 µM; on Aquaporin-3 [4], around 0.2 µM.

On to `O=C(Nc1nncs1)c1cccnc1`, for which the inhibition in [5] is 56%; against Aquaporin-4 [7] it was 73%. This compound registered an IC50 at Aquaporin-4 [6] of 3 µM.

In turn, `Cc1ccc(CC2(OCCN(C)C)CCC(C(C)(C)C)CC2)cc1` (stereo not drawn) returned an IC50 on Aquaporin-3 [8] of 27 µM.

On to `CCOC(=O)c1ccc(NC(=O)NCc2ccc(-n3cccn3)cc2)cc1`, for which the IC50 against Aquaporin-9 was 1.1 µM; at Aquaporin-3 [3] it was 0.2 µM; at Aquaporin-3 [9], 0.7 µM; at Aquaporin-3 [4], around 0.6 µM.

Regarding `CC(=O)Nc1nnc(S(N)(=O)=O)s1` [ACETAZOLAMIDE], the Kd on Aquaporin-1 turned out to be 174 µM.

For the origin of these results see ChEMBL document CHEMBL6182835, “Distinctive roles of aquaporins and novel therapeutic opportunities against cancer” (RSC Med Chem, 2025).
